In patent publication US9540648B2, “Therapeutic use of activators of zinc finger protein GL13” (Universität Leipzig, priority 2012, dated 2017):

How the values were obtained:
human hepatocytes = experiment: Cyclopamine: accumulation of neutral lipids in cultured human hepatocytes (Nile red staining); assay type: cell-based; details: 10 μM cyclopamine, 72 h
Procedure: (§1) Cyclopamine (Sigma) was dissolved in DMSO (10 mM). Mouse and human hepatocytes were incubated for 72 h in the presence of 10 μM Cyclopamine. Control cultures were incubated with culture medium containing vehicle (0.1% DMSO).
(§2) Fluorescent staining of neutral lipids in hepatocytes was performed using Nile red (Biomol). Hepatocytes were fixed with 4% buffered paraformaldehyde for 10 min. For Nile red staining, a 200 nM working solution in phosphate-buffered saline (PBS) was prepared from a 1 mM stock solution in DMSO and was added directly to the fixed cells. After 20 min of incubation at room temperature cells were washed in PBS. Nuclei were counterstained with DAPI (Sigma).
(§3) Primary hepatocytes from SLC mice were isolated by collagenase perfusion of the liver. Cell suspension was carefully cleared from non-parenchymal cells by differential centrifugation. Finally, hepatocytes were suspended in Williams Medium E containing 10% fetal calf serum and further additions as described (Klingmüller et al., 2006), and were plated onto 6-well or 12-well plates precoated with collagen type I (Klingmüller et al., 2006; Gebhardt et al., 1982). After 4 h, serum-free medium was used throughout cultivation. Cryopreserved human hepatocytes were purchased from TebuBio (Offenbach, Germany). […]

mouse hepatocytes = experiment: Cyclopamine: accumulation of neutral lipids in cultured mouse hepatocytes (Nile red staining); assay type: cell-based; details: 10 μM cyclopamine, 72 h
Procedure: as §1, §2, §3

C57Bl/6-N hepatocytes [1] = experiment: Silencing of GLI family members by siRNA in hepatocytes, gene expression by qRT-PCR; assay type: cell-based, murine; details: for expression of lipogenic transcription factor Srebp1 (mRNA): FIG. 5
Text: Total RNA from hepatocytes, liver tissue and other organs was extracted using TRIzol (Peqlab, Erlangen). Total RNA from adipose tissue was extracted using the RNeasy Lipid Tissue mini Kit (Quiagen, Hilden). RNA was reverse transcribed using oligo(dt) primers and IM Promm II reverse transcriptase (Promega). The resulting cDNA samples were then quantified for each test gene using target gene-specific primers designed using the online tools Universal ProbeLibrary Probe-Finder software, Perl Primer and Primer 3.
(§4) The levels of all mRNA transcripts were determined in duplicate by qRT-PCR using the Light Cycler® 2.0 Instrument and the LightCycler® FastStart DNA Master PLUS SYBR Green I (Roche). Using the standard curve method, the absolute quantitation of specific PCR products for each primer set was generated. For normalization, β-actin was amplified from each sample.
To analyze the role of GLI family members in C57Bl/6-N hepatocytes on gene expression, murine hepatocytes were isolated and cultured for 72 h upon transfection with siRNA silencing either GLI1, GLI2 or GLI3.
GLI1-, GLI2- and GLI3-specific siRNAs and respective scrambled control siRNAs were purchased from Invitrogen. The following double stranded siRNAs were used for inhibition of GLI1, GLI2 and GLI3:
(§5) Freshly isolated hepatocytes were seeded at a density of 100.000 cells per well of 12-well plates in normal culture medium containing 10% FCS. After 4 h, serum-free medium was used and chemically synthesized siRNAs ([…] for GLI2 and GLI3, 50 nM for GLI1) were transfected with Interferin from Peqlab (Erlangen) according to the manufacturer's instructions. Twenty-four hours after transfection, the medium was changed and fresh medium without siRNA was added. Changes in gene expression were analyzed by qRT PCR at different time points up to 72 h post-transfection as indicated in figure legends using primers as described above in Example 2 and the following additional primers: […]

C57Bl/6-N hepatocytes [2] = experiment: Oil red O staining of neutral lipids in cultured hepatocytes transfected with GLI siRNA; assay type: cell-based, murine; details: 72 h after siRNA transfection, FIG. 8
Procedure: FIG. 8 Staining of neutral lipids by Oil red O in cultured hepatocytes transfected with a) mock, b) GLI1 siRNA, c) GLI2 siRNA and d) GLI3 siRNA determined after 72 h.
as §5
On the contrary neither GLI1 siRNA (FIG. 8b) nor GLI2 siRNA (FIG. 8c) was capable of mediating this effect.

[3] = test system: murine C57BL/6-N hepatocytes; experiment: Silencing of Sufu by siRNA in hepatocytes, gene expression by real time PCR; assay type: cell-based
Procedure: as §4, §5
Sufu is a known inhibitor of hedgehog signalling. The transfection of hepatocytes with siRNA and real time PCR was performed as described in Example 3. The following additional primers were used: […]

Compound: CC1=C2C[C@H]3[C@@H](CC=C4C[C@@H](O)CC[C@@]43C)[C@@H]2CC[C@]12O[C@@H]1C[C@H](C)CN[C@H]1[C@H]2C [cyclopamine, Cyclopamine]
- steatosis (accumulation of neutral lipids) (human hepatocytes): marked steatosis
- steatosis (accumulation of neutral lipids) (mouse hepatocytes): marked steatosis

Compound: GLI1 siRNA: double stranded siRNA for inhibition of GLI1, SEQ ID No. 1 and 2, purchased from Invitrogen (chain 1 UGGAGAACCUUAGGCUGGAUCAGCU; chain 2 AGCUGAUCCAGCCUAAGGUUCUCCA; listed as RNA, chemistry not given here)
- expression of lipogenic transcription factor Srebp1 (mRNA) (C57Bl/6-N hepatocytes [1]; siRNA vs nonsense RNA control): not
- accumulation of fat droplets (Oil red O staining of neutral lipids) (C57Bl/6-N hepatocytes [2]): comparable phenotype as wild type hepatocytes

Compound: GLI2 siRNA: double stranded siRNA for inhibition of GLI2, SEQ ID No. 3 and 4, purchased from Invitrogen (chain 1 CCACAACCACAACGUUGCUCAGACA; chain 2 UGUCUGAGCAAGCUUGUGGUUGUGG; listed as RNA, chemistry not given here)
- expression of lipogenic transcription factor Srebp1 (mRNA) (C57Bl/6-N hepatocytes [1]; siRNA vs nonsense RNA control): not
- accumulation of fat droplets (Oil red O staining of neutral lipids) (C57Bl/6-N hepatocytes [2]): comparable phenotype as wild type hepatocytes

Compound: GLI3 siRNA: double stranded siRNA for inhibition of GLI3, SEQ ID No. 5 and 6, purchased from Invitrogen (chain 1 UAGCAAGGCCAUCUUGGUCUUCAGG; chain 2 CCUGAAGACCAAGAUGGCCUUGCUA; listed as RNA, chemistry not given here)
- IGF1 mRNA (C57Bl/6-N hepatocytes [1]; Gli siRNA, FIG. 23A): downregulates
- IGFBP1 mRNA (C57Bl/6-N hepatocytes [1]; Gli siRNA, FIG. 23B): upregulated
- expression of lipogenic transcription factor PPAR-γ (mRNA) (C57Bl/6-N hepatocytes [1]; siRNA vs nonsense RNA control, FIG. 4): significantly increased
- expression of lipogenic transcription factor Srebp1 (mRNA) (C57Bl/6-N hepatocytes [1]; siRNA vs nonsense RNA control): significantly increased
- expression of lipogenic enzyme ELOVL fatty acid elongase 6 (Elovl6) (C57Bl/6-N hepatocytes [1]; siRNA vs nonsense RNA control, FIG. 6): increased expression
- expression of lipogenic enzyme fatty acid synthase (Fasn) (C57Bl/6-N hepatocytes [1]; siRNA vs nonsense RNA control, FIG. 7): increased expression
- accumulation of fat droplets (Oil red O staining of neutral lipids) (C57Bl/6-N hepatocytes [2]): pronounced accumulation of fat droplets

Compound: Sufu siRNA: double stranded siRNA inhibiting Sufu, SEQ ID No. 7 and 8; preferred GLI3 activating siRNA (chain 1 CCCUUGGACUAUGUUAGCAUGUACA; chain 2 UGUACAUGCUAACAUAGUCCAAGGG; listed as RNA, chemistry not given here)
- expression of GLI2 ([3]; FIG. 9): increased expression
- expression of GLI3 ([3]; FIG. 9): increased expression
- expression of Indian hedgehog (IHH) ([3]; FIG. 9): increased expression
- silencing of Sufu ([3]; FIG. 9): Successful silencing
- expression of GATA4 ([3]; FIG. 10): increased expression
- hepatocellular expression of PPAR-γ ([3]; FIG. 10): reduced
- hepatocellular expression of Srebp1 ([3]; FIG. 10): reduced
- expression of Cyp17A1 ([3]; FIG. 19): decreased expression
